According to patent publication US20140196172A1, “Organelle Targeting Nanocarriers” (Her Majesty the Queen in Right of Canada, as Repre sented …, priority 2011, published 2014):

Assays:
[1] = tested on: tobacco protoplasts; experiment: Incubation of tobacco protoplasts with fluorescently labeled peptides, confocal microscopy; type: cell-based, Nicotiana benthamiana; conditions: fluorescein-labelled peptide 20 μM, 1 hour, confocal (Olympus)
Method: Nicotiana benthamiana plants are grown for 6-8 weeks and kept in the dark for 24 hrs prior to all experiments. All pipetting is done slowly with wide bore pipette tips to prevent protoplast lysis. Leaves are cut on the underside in many shallow thin slices, with the center vein taken out, and incubated underside down with enzyme digest solution [2% cellulase and 2% macerozyme (Yakult Honsha Co Ltd, Japan) in CPW (cell protoplast washing) solution, pH 5.6 (Frearson E M, Power J B, Cocking E C (1973) Dev Biol 33: 130-137)] in […] Petri dishes for 3-5 hrs at 28° C. After incubation, leaves are gently shaken with forceps to release any remaining protoplasts, and medium is gently filtered through […] sieves and transferred into 50 mL centrifuge tubes. The medium is spun for 5 min at 300 g at 4° C., and a floating band of protoplasts is removed from the top of the suspension, resuspended in W5 wash solution (154 mM NaCl, 125 mM CaCl2.2H2O, 5 mM KCl, 5 mM glucose, 0.5 M mannitol adjusted to pH 5.8 with 0.1 M KOH), and spun for 3 mins at 300 g at 4° C. The pellet is gently layered on 5 mL of 20% maltose in a 15 mL centrifuge tube, and centrifuged 5 mins at 300 g. A floating band in the center of the solution is carefully removed and resuspended with MaMg solution (15 mM MgCl2, 0.1% MES, 0.4 M mannitol, adjusted to pH 5.6 with KOH), and spun for 3 mins at 300 g at 4° C. The protoplast suspension is diluted to 100,000 cells/ml using a hemocytometer.
A stock solution of fluoresceinated mTPs or cTPs (100 μM) prepared with sterile optimum water is added to protoplast suspension at a final concentration of 20 μM. Each suspension is incubated at room temperature for 1 hour in the dark. Following incubation, 25% Trypsin EDTA is added for 5 minutes and the solution is centrifuged for 2 minutes at 120 g. The pellet is resuspended in fresh MaMg media, and 1.5 μL MitoTracker® Orange CM-H2TMRos (M7511, Invitrogen) is added for 15 minutes, followed by centrifugation for 2 minutes at 120 g. Protoplasts are mounted on slides in 1% low melting point agar (2:1 ratio of agar to protoplast suspension) for confocal microscopy (Olympus; both XY cross section and XYZ depth images).
Cells are observed using a confocal microscope (Nikon C1, Nikon Canada Inc. or Olympus FluoView™) to analyse the localization of the fluoresceinated mTPs or cTPs (excitation wavelength 490 nm/emission wavelength 520 nm). Chloroplasts are identified by autofluorescence. The fluorescent dye MitoTracker® Orange CM-H2TMRos (M7511, Invitrogen) is used to stain mitochondria (excitation wavelength 554 nm/emission wavelength 576 nm). Fluorescence emissions are collected in z-confocal planes of […] and analyzed using EZ-C1 Software Version 3.6 (Nikon) or Olympus FluoView™ software version 2.0b (Olympus).

[2] = tested on: linearized plasmid DNA (linear double stranded DNA, 6.8 kb); experiment: Gel mobility shift assay; type: binding; conditions: minimum peptide needed for complete shift of 100 ng plasmid DNA; — = no shift up to highest ratio tested
Method: The ten non-labelled oTP sequences identified as having both cell penetrating and organelle targeting properties (Tables 3 and 4) were tested, using a gel mobility shift assay and a nuclease protection assay, for their ability to bind non-covalently to nucleic acids.
The gel mobility shift assay is used to determine the minimum peptide concentration needed to bind to plasmid DNA and cause it to shift during electrophoresis. Purified linearized plasmid DNA (100 ng of linear double stranded DNA, 6.8 kb) is mixed with increasing concentrations of each of the ten oTPs listed in Tables 3 and 4, according to calculated increasing peptide:DNA charge ratios (1:1, 2:1, 3:1, 4:1, 5:1, etc.) until a complete shift is observed in the plasmid DNA during electrophoresis. The DNA is prepared to a final concentration of a 100 ng/μl in sterile water. Each reaction has a final volume of 25 μl and is incubated for 30 min for complex formation and subjected to electrophoresis on 1% agarose gel stained with ethidium bromide.

[3] = tested on: Caco-2 (human colonic epithelial cell line); experiment: Uptake of labeled peptides by Caco-2 cells, photometric cell imaging; type: cell-based; conditions: for Average concentration of labeled peptide measured in cells, Caco-2: cells exposed to labeled peptide at 17 μM; for Photometric Cell Imaging (average counts/sec) Caco-2: 1 hr, background about 1×10^5 counts/sec
Method: (§1) Caco-2 and F1112 cells are cultured in Dulbecco's Modified Eagle Medium (DMEM) containing 10% (v/v) fetal bovine serum (FBS) and 50 μg/ml gentamycin at 37° C. in a 95% humidified atmosphere containing 5% CO2. The cells are grown in Falcon™ […] 75 cm^2 cell culture flasks until they reach confluency, then are detached with 0.25% trypsin and 0.02% EDTA and washed with DMEM.
(§2) Preparations used for photometric cell imaging are prepared by adding 1000 cells to a Nunc coverglass chamber (2.5 cm^2). Cells are cultured as described above for 3 to 7 days. The cell monolayers are rinsed three times with epithelial cell saline (pH 7.4).
(§3) Varying concentrations of fluoresceinated mTPs (100 μM) are added to epithelial cell saline to obtain a final working volume of 400 μl. Final concentrations added to the Caco-2, F1112 and MG cell monolayers as described above are 17 μM, 9 μM and 4 μM. Cells are incubated with the peptides for 1 hr in the dark at 37° C. in a 95% humidified atmosphere containing 5% CO2. At the end of the incubation period, the cell monolayer is rinsed three times with epithelial cell saline and 500 μl of epithelial cell saline is added.
(§4) Uptake of labeled peptides by cells is quantified using a photometric detector/cell-imaging system (PTI). An excitation scan is run to determine if uptake has occurred as indicated by peaks at the appropriate wavelengths and if the amount changes in a dose-dependent manner compared to unlabeled cells. A time-based scan is then performed at the optimal excitation and emission wavelength to quantify total uptake, using about 20 cells/view/replicate.

[4] = tested on: MG (bovine mammary gland) cells; experiment: Uptake of labeled peptides by MG cells, photometric cell imaging; type: cell-based; conditions: for Average concentration of labeled peptide measured in cells, MG: cells exposed to labeled peptide at 17 μM; for Photometric Cell Imaging (average counts/sec) MG: 1 hr, background about 1×10^5 counts/sec
Method: as §1, with “MG” for “Caco-2 and F1112”, “20%” for “10%”, “Falcon™ 25” for “Falcon™”
as §2, §3, §4

| Sequence | Organelle localization [1] | Peptide:DNA Ratio, Molar Binding Ratio [2] | Average concentration of labeled peptide measured in cells, Caco-2 [3] | Photometric Cell Imaging (average counts/sec) Caco-2 ([3]; labeled peptide 4 μM) | Photometric Cell Imaging (average counts/sec) Caco-2 ([3]; labeled peptide 9 μM) | Photometric Cell Imaging (average counts/sec) Caco-2 ([3]; labeled peptide 17 μM) | Average concentration of labeled peptide measured in cells, MG [4] | Photometric Cell Imaging (average counts/sec) MG ([4]; labeled peptide 4 μM) | Photometric Cell Imaging (average counts/sec) MG ([4]; labeled peptide 9 μM) | Photometric Cell Imaging (average counts/sec) MG ([4]; labeled peptide 17 μM) |
| --- | --- | --- | --- | --- | --- | --- | --- | --- | --- | --- |
| MAALIPAIASLPRAQVEKPHPMPVSTRPGLVS (listed as Triticum aestivum) [cTP4] | localize to chloroplasts |  |  |  |  |  |  |  |  |  |
| MAAWMRSLFSPLKKLWIRMH (Zea mays) [mTP2] | localize to mitochondria | 167.39 | 20 nm | 340000 counts/sec | 420000 counts/sec | 490000 counts/sec | 62 nm | 140000 counts/sec | 160000 counts/sec | 1500000 counts/sec |
| MFSYLPRYPLRAASARALVRATRPSYRSALLRYQ (listed as Triticum aestivum) [mTP1] |  | 264.14 | 70 nm | 200000 counts/sec | 1200000 counts/sec | 1600000 counts/sec | 78 nm | 400000 counts/sec | 1800000 counts/sec | 1900000 counts/sec |
| MGGCVSTPKSCVGAKLR (listed as Arabidopsis thaliana) [cTP1] | localize to chloroplasts |  |  |  |  |  |  |  |  |  |
| MKLLWRLILSRKW (listed as Arabidopsis thaliana) [mTP3] | localize to mitochondria | 71.39 | 60 nm | 460000 counts/sec | 1200000 counts/sec | 1600000 counts/sec | 62 nm | 430000 counts/sec | 1000000 counts/sec | 1500000 counts/sec |
| MLFRLRRSVRLRGLLA (listed as Arabidopsis thaliana) [mTP5] |  | 114.29 | 60 nm | 280000 counts/sec | 650000 counts/sec | 1600000 counts/sec | 60 nm | 440000 counts/sec | 1400000 counts/sec | 1600000 counts/sec |
| MQTLTASSSVSSIQRHRPHPAGRRSSSVTFS (listed as Triticum aestivum) [cTP2] | localize to chloroplasts |  |  |  |  |  |  |  |  |  |
| MSSPPPLFTSCLPASSPSIRRDSTSGSVTSPLR (listed as Arabidopsis thaliana) [cTP5] | localize to chloroplasts |  |  |  |  |  |  |  |  |  |
| MWWRRSRTNSLRYT (listed as Arabidopsis thaliana) [mTP4] |  |  | 60 nm | 300000 counts/sec | 1200000 counts/sec | 1600000 counts/sec | 58 nm | 430000 counts/sec | 1200000 counts/sec | 1400000 counts/sec |
